Measurements reported in patent publication US9918963B2, “Therapeutic agent for disease based on inhibitory effect of macrophage migration inhibitory factor” (TOYAMA CHEMICAL CO., LTD., priority 2013, dated 2018).

Experiments:
MIF = biological target: T1, MIF (Homo sapiens, UniProt P14174); assay: Inhibition of MIF tautomerase activity (L-dopachrome methyl ester, absorbance at 475 nm); format: biochemical; settings: 30 μmol/L test substance, 10 to 50 nmol/L MIF, pH 6.2, control = 100%; read-out: Inhibition Rate of Tautomerase Reaction
T1 construct: (catalogue number not given); host or cells: E. coli BL21 Star (DE3)
T1 sequence (P14174 2-115 limits assumed): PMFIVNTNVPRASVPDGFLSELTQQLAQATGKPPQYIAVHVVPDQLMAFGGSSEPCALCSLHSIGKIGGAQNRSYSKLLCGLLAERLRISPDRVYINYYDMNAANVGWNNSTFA
Protocol: The inhibitory effect of test substances against tautomerase activity of MIF was evaluated by referring to a method of Healy et al. (Cancer Epidemiology Biomarkers and Prevention, 2011, vol. 20, pp. 1516-1523).
In this method, tautomeric reaction from L-3,4-dihydroxyphenylalanine methyl ester (L-dopachrome methyl ester, colored) to 5,6-hydroxyindole-2-carboxylic acid methyl ester (no color) is measured as a change in absorbance at 475 nm.
As an enzyme source, recombinant MIF manufactured by Abcam Plc. or MIF produced and purified by referring to a method of Lubetsky et al. (The Journal of Biological Chemistry, 2002, vol. 277, pp. 24976-24982) was used. A purification method for MIF is described below.
The pET15b vector (Merck) into which the full length gene sequence of MIF had been inserted was transfected E. coli BL21 Star (DE3) strain (Life Technologies Corporation). […] The E. coli were resuspended in buffer (pH 7.5) containing 20 mmol/L Tris (Wako Pure Chemical Industries, Ltd.), 20 mmol/L sodium chloride (Wako Pure Chemical Industries, Ltd.) and 1 mmol/L dithiothreitol (Wako Pure Chemical Industries, Ltd.), and the resultant was subjected to ultrasonic lysis and centrifugation at 15000 rpm for 10 minutes. The thus obtained supernatant was filtered using a 0.20 μm filter, and was allowed to pass through HiTrap Q HP and HiTrap SP HP columns (GE Healthcare Japan Corporation), so as to separate flow-through fractions each of 5 mL. Each of 10 μL of the separated fractions was subjected to the electrophoresis using 5 to 20% polyacrylamide gel (Wako Pure Chemical Industries, Ltd.), and all proteins were stained with Coomassie brilliant blue reagent (Bio-Rad Laboratories, Inc.). On the basis of results thus obtained, a fraction containing a large amount of MIF and containing least amount of other proteins was selected as purified MIF. The concentration of MIF protein was measured by using BCA protein assay reagent (Thermo Fisher Scientific K. K.).
Inhibitory effect of each test substance against MIF tautomerase activity was measured as follows.
A final concentration of 10 to 50 nmol/L of MIF and a final concentration of 30 μmol/L of each test substance or 0.5% dimethyl sulfoxide (Wako Pure Chemical Industries, Ltd.) as a control were added to buffer (pH 6.2) containing 50 mmol/L Bis-Tris (Dojindo Laboratories) and 1 mmol/L EDTA (Dojindo Laboratories), and reaction was performed at room temperature for 15 minutes to give a reaction solution 1.
On the other hand, 1/20 volume of 12 mmol/L L-3,4-dihydroxyphenylalanine methyl ester (Sigma Aldrich) and 1/20 volume of 24 mmol/L sodium periodate (Wako Pure Chemical Industries, Ltd.) were added to buffer having the same composition as that used for obtaining the reaction solution 1, to give a reaction solution 2.
Next, the reaction solution 1 and the reaction solution 2 were mixed, and the temporal change of absorbance at 475 nm of the obtained mixture was immediately measured.
The difference of the absorbencies between the at about 1 minute after the measurement start and at about 5 minutes after was obtained. Assuming that the absorbance change of the control is 100%, an inhibiting rate of the tautomerase reaction in presence of=each test substance was calculated.

[1] = system: chronic relapsing EAE model of mouse; format: in vivo
Protocol: Compound A was selected as a test substance, and salazosulfapyridine (hereinafter referred to as SASP) was selected as a comparative control agent. Compound A was administered at a dose of 30 mg/kg (Compound A group). SASP was administered at a dose of 300 mg/kg (SASP group). In control group and normal group (no induction treatment group), 0.5% methyl cellulose aqueous solution used as vehicle of the administration liquid was administered.
The chronic relapsing EAE was induced in SJL/J female mice by immunization with partial PLP peptide. Briefly, an emulsion was prepared by mixing equivalent volumes of phosphate buffer saline containing 1 mg/mL of the peptide corresponding to residues 139-151 of the PLP and Freund's […] adjuvant containing 4 mg/mL of killed M. Tuberculosis H37Ra. The emulsion was intradermically injected (50 μg of PLP per mouse) into four positions on the back for immunization, and additionally, on the day of the immunization and two days after, pertussis toxin was intraperitoneally injected in each amount of 150 ng per mouse, twice in total. The vehicle, the test substance or the reference article was orally administered continuously for 44 days once daily from the day of the immunization.
In the present experiment, paralysis was developed to reach a peak on the 14th to 16th day after the immunization, and the symptom remitted once, but relapsed to reach a peak on the 38th day.
The symptom was evaluated in accordance with a report of Weaver et al. (FASEB Journal, 2005, vol. 19, p. 1668). Briefly, paralysis of all of the four limbs and the tail was evaluated by scoring in 4 ranks of scores of 0 to 3 and in 3 ranks of scores of 0 to 2, respectively, and the sum of the scores was determined as EAE score (the maximum score 14).
Incidence rates (the number of mice having developed the disease/the number of used mice) and the average of EAE score of each group were measured at the period of initial onset (on the 15th day after the immunization) and at the period of relapse (on the 38th day after the immunization).

CS(=O)(=O)Nc1cc2occ(NC=O)c(=O)c2cc1Oc1ccccc1 [Compound A, N-[7-[(methylsulfonyl)amino]-4-oxo-6-phenoxy-4H-1-benzopyran-3-yl]formamide]
inhibition at 30 µM (MIF): 50 to 75%
EAE score, period of initial onset ([1]; 15th day after immunization, average, maximum score 14, oral once daily (Compound A 30 mg/kg, SASP 300 mg/kg)): 1.4
Incidence rate, period of initial onset ([1]; 15th day after immunization, mice having developed the disease/mice used, oral once daily from immunization (Compound A 30 mg/kg, SASP 300 mg/kg)): 1/8
EAE score, period of relapse ([1]; 38th day after immunization, average, maximum score 14, oral once daily (Compound A 30 mg/kg, SASP 300 mg/kg)): 0.3
Incidence rate, period of relapse ([1]; 38th day after immunization, mice having developed the disease/mice used, oral once daily (Compound A 30 mg/kg, SASP 300 mg/kg)): 2/8
Effect on incidence rate / EAE score, paralysis of chronic relapsing EAE ([1]; oral once daily for 44 days from immunization (Compound A 30 mg/kg, SASP 300 mg/kg)): suppressed the occurrence of paralysis
